# From ChEMBL document CHEMBL1138938, “Design, synthesis, and SAR studies on a series of 2-pyridinylpiperazines as potent antagonists of the melanocortin-4 receptor” (Bioorg Med Chem Lett, 2006)
# System: not listed separately
# Test: Oral bioavailability in rat
# Type: ADME, organism-based
# Conditions: in vivo
row,Structure (SMILES),bioavailability
1,COc1ccccc1CCNCc1cccnc1N1CCN(C(=O)[C@@H](Cc2ccc(Cl)cc2Cl)NC(=O)CCN)CC1,15%
2,COc1ccccc1CCNCc1cccnc1N1CCN(C(=O)[C@@H](Cc2ccc(Cl)cc2Cl)NC(C)=O)CC1,0%

# Target: Melanocortin receptor 3 (Homo sapiens, UniProt P41968)
# Sequence (P41968 whole entry): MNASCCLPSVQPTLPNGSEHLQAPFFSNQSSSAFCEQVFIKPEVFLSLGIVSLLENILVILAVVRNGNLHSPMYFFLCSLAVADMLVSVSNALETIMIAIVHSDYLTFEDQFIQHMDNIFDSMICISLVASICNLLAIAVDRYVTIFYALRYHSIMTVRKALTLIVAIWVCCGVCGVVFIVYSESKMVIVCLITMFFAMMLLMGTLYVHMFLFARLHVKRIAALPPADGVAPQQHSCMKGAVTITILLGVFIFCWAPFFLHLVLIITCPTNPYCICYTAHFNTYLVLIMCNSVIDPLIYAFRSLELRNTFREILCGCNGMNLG
# Test: Displacement of [125I]NDP-MSH from human MC3R expressed in HEK293 cells
# Type: cell-based
# Conditions: not given
row,Structure (SMILES),Ki
1,COc1ccccc1CCNCc1cccnc1N1CCN(C(=O)[C@@H](Cc2ccc(Cl)cc2Cl)NC(=O)CCN)CC1,5 µM

# Target: Melanocortin receptor 5 (Homo sapiens, UniProt P33032)
# Sequence (P33032 whole entry): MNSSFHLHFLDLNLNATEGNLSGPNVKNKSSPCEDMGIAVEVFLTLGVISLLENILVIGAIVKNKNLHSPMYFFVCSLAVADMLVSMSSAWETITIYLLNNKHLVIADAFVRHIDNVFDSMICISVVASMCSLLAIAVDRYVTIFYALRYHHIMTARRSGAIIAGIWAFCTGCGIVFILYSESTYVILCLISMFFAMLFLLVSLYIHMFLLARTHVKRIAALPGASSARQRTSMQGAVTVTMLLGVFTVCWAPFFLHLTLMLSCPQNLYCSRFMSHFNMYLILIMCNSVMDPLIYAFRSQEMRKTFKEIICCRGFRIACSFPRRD
# Test: Displacement of [125I]NDP-MSH from human MC5R expressed in HEK293 cells
# Type: cell-based
# Conditions: not given
row,Structure (SMILES),Ki
1,COc1ccccc1CCNCc1cccnc1N1CCN(C(=O)[C@@H](Cc2ccc(Cl)cc2Cl)NC(=O)CCN)CC1,2.1 µM

# Target: Melanocortin receptor 4 (Homo sapiens, UniProt P32245)
# Sequence (P32245 whole entry): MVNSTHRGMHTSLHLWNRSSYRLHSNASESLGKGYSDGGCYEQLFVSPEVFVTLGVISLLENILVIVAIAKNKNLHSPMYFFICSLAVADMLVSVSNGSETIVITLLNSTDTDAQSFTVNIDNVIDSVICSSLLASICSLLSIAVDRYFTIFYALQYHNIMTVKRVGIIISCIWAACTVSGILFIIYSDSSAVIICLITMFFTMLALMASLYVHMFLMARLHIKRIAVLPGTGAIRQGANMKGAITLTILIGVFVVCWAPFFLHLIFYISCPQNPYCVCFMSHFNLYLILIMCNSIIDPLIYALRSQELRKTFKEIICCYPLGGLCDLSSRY
# Test: Displacement of [125I]NDP-MSH from human MC4R expressed in HEK293 cells
# Type: cell-based
# Conditions: not given
row,Ki,Structure (SMILES)
1,0.021 µM,CC(=O)N[C@H](Cc1ccc(Cl)cc1Cl)C(=O)N1CCN(c2ncccc2CNCCc2cccs2)CC1
2,1.8 µM,NCCC(=O)N[C@H](Cc1ccc(Cl)cc1Cl)C(=O)N1CCN(c2ncccc2CNC(=O)c2ccccc2)CC1
3,0.012 µM,NCCC(=O)N[C@H](Cc1ccc(Cl)cc1Cl)C(=O)N1CCN(c2ncccc2CNCCc2ccccc2F)CC1
4,0.42 µM,CC(CO)NCc1cccnc1N1CCN(C(=O)[C@@H](Cc2ccc(Cl)cc2Cl)NC(=O)CCN)CC1C (stereo not given in full)
5,0.015 µM,NCCC(=O)N[C@H](Cc1ccc(Cl)cc1Cl)C(=O)N1CCN(c2ncccc2CNCCc2cccs2)CC1
6,1.5 µM,COc1ccc(C(=O)NCc2cccnc2N2CCN(C(=O)[C@@H](Cc3ccc(Cl)cc3Cl)NC(=O)CCN)CC2)cc1
7,1 µM,NCCC(=O)N[C@H](Cc1ccc(Cl)cc1Cl)C(=O)N1CCN(c2ncccc2CNC(=O)NCc2ccccc2F)CC1
8,0.01 µM,COc1ccccc1CCNCc1cccnc1N1CCN(C(=O)[C@@H](Cc2ccc(Cl)cc2Cl)NC(C)=O)CC1
9,0.71 µM,CCC(CO)NCc1cccnc1N1CCN(C(=O)[C@@H](Cc2ccc(Cl)cc2Cl)NC(=O)CCN)CC1 (stereo not given in full)
10,1 µM,NCCC(=O)N[C@H](Cc1ccc(Cl)cc1Cl)C(=O)N1CCN(c2ncccc2CNC(=O)Cc2ccc(F)cc2)CC1
11,0.0088 µM,COCC(C)NCc1ccccc1N1CCN(C(=O)[C@@H](Cc2ccc(Cl)cc2Cl)NC(=O)CCN)CC1 (stereo not given in full)
12,0.56 µM,COc1ccccc1CNC(=O)NCc1cccnc1N1CCN(C(=O)[C@@H](Cc2ccc(Cl)cc2Cl)NC(=O)CCN)CC1

# The next lines start with the compound.
row,Structure (SMILES),Ki
1,NCCC(=O)N[C@H](Cc1ccc(Cl)cc1Cl)C(=O)N1CCN(c2ncccc2CNC(=O)Oc2ccccc2)CC1,1.2 µM
2,NCCC(=O)N[C@H](Cc1ccc(Cl)cc1Cl)C(=O)N1CCN(c2ncccc2CNC(=O)Nc2ccccc2F)CC1,1.1 µM
3,COc1ccccc1OC(=O)NCc1cccnc1N1CCN(C(=O)[C@@H](Cc2ccc(Cl)cc2Cl)NC(=O)CCN)CC1,1.8 µM
4,CC(C)(CO)NCc1cccnc1N1CCN(C(=O)[C@@H](Cc2ccc(Cl)cc2Cl)NC(=O)CCN)CC1,0.48 µM
5,NCCC(=O)N[C@H](Cc1ccc(Cl)cc1Cl)C(=O)N1CCN(c2ncccc2CNC(=O)OCc2ccccc2)CC1,0.44 µM
6,NCCC(=O)N[C@H](Cc1ccc(Cl)cc1Cl)C(=O)N1CCN(c2ncccc2CNC(=O)Cc2cccs2)CC1,0.31 µM
7,COc1ccccc1CCNCc1cccnc1N1CCN(C(=O)[C@@H](Cc2ccc(Cl)cc2Cl)NC(=O)CCN)CC1,0.0067 µM
8,NCCC(=O)N[C@H](Cc1ccc(Cl)cc1Cl)C(=O)N1CCN(c2ncccc2CNC(=O)NCc2cccs2)CC1,0.75 µM
9,NCCC(=O)N[C@H](Cc1ccc(Cl)cc1Cl)C(=O)N1CCN(c2ncccc2CNC(=O)Nc2ccccc2)CC1,0.71 µM
10,NCCC(=O)N[C@H](Cc1ccc(Cl)cc1Cl)C(=O)N1CCN(c2ncccc2CNC(=O)c2ccco2)CC1,2.6 µM
11,CC(=O)NCc1cccnc1N1CCN(C(=O)[C@@H](Cc2ccc(Cl)cc2Cl)NC(=O)CCN)CC1,2.8 µM
12,NCCC(=O)N[C@H](Cc1ccc(Cl)cc1Cl)C(=O)N1CCN(c2ncccc2CNCCO)CC1,0.52 µM
13,NCCC(=O)N[C@H](Cc1ccc(Cl)cc1Cl)C(=O)N1CCN(c2ncccc2CNC(=O)c2cccs2)CC1,1.8 µM
14,COCC(C)NCc1cccnc1N1CCN(C(=O)[C@@H](Cc2ccc(Cl)cc2Cl)NC(=O)CCN)CC1 (stereo not given in full),0.087 µM
15,NCCC(=O)N[C@H](Cc1ccc(Cl)cc1Cl)C(=O)N1CCN(c2ncccc2CNCc2ccccc2F)CC1,0.13 µM
16,COc1ccc(CC(=O)NCc2cccnc2N2CCN(C(=O)[C@@H](Cc3ccc(Cl)cc3Cl)NC(=O)CCN)CC2)cc1,0.55 µM
17,NCCC(=O)N[C@H](Cc1ccc(Cl)cc1Cl)C(=O)N1CCN(c2ncccc2CNC(=O)c2ccc(F)cc2)CC1,2.2 µM
18,CC(C)NC(=O)NCc1cccnc1N1CCN(C(=O)[C@@H](Cc2ccc(Cl)cc2Cl)NC(=O)CCN)CC1,1.3 µM
19,CCC(COC)NCc1cccnc1N1CCN(C(=O)[C@@H](Cc2ccc(Cl)cc2Cl)NC(=O)CCN)CC1 (stereo not given in full),0.2 µM
20,COc1ccccc1CCNCc1ccccc1N1CCN(C(=O)[C@@H](Cc2ccc(Cl)cc2Cl)NC(=O)CCN)CC1,0.0016 µM
21,NCCC(=O)N[C@H](Cc1ccc(Cl)cc1Cl)C(=O)N1CCN(c2ncccc2CNCC(F)(F)F)CC1,0.17 µM
22,NCCC(=O)N[C@H](Cc1ccc(Cl)cc1Cl)C(=O)N1CCN(c2ncccc2CNC(=O)Cc2ccccc2F)CC1,0.45 µM
23,COCC(=O)NCc1cccnc1N1CCN(C(=O)[C@@H](Cc2ccc(Cl)cc2Cl)NC(=O)CCN)CC1,2.8 µM
24,COc1ccccc1CC(=O)NCc1cccnc1N1CCN(C(=O)[C@@H](Cc2ccc(Cl)cc2Cl)NC(=O)CCN)CC1,0.36 µM
25,COCC(C)NCc1cccnc1N1CCN(C(=O)[C@@H](Cc2ccc(Cl)cc2Cl)NC(C)=O)CC1 (stereo not given in full),0.18 µM
26,NCCC(=O)N[C@H](Cc1ccc(Cl)cc1Cl)C(=O)N1CCN(c2ncccc2CNC(CO)CO)CC1,1.5 µM
27,COc1ccccc1NC(=O)NCc1cccnc1N1CCN(C(=O)[C@@H](Cc2ccc(Cl)cc2Cl)NC(=O)CCN)CC1,1.3 µM

# System: not listed separately
# Test: Intrinsic clearance in rat liver microsome
# Type: ADME
# Conditions: liver microsomes
row,Structure (SMILES),CLint scaled
1,COc1ccccc1CCNCc1cccnc1N1CCN(C(=O)[C@@H](Cc2ccc(Cl)cc2Cl)NC(=O)CCN)CC1,23.4 L/h/kg
2,COc1ccccc1CCNCc1cccnc1N1CCN(C(=O)[C@@H](Cc2ccc(Cl)cc2Cl)NC(C)=O)CC1,210 L/h/kg
